Experimental data: patent US20080188483A1, “Compounds and Compositions as Protein Kinase Inhibitors” (IRM LLC, priority 2006, published 2008)

Key:
[1] = biological target: T1, G250E Bcr-abl (Ba/F3 cells) (Homo sapiens, UniProt P00519, G250E); test: Proliferation of Ba/F3 cells expressing mutant Bcr-abl G250E; type: cell-based
T1 construct: expressed in transfected cells; host or cells: Ba/F3; the other entry of the earlier key: BCR (P11274, Breakpoint cluster region protein)
Procedure: (§1) 2D-p210 cells are plated into 96 well TC plates at a density of 15,000 cells per well. 50 μL of two fold serial dilutions of the test compound (Cmax is 40 μM) are added to each well (STI571 is included as a positive control). After incubating the cells for 48 hours at 37° C., 5% CO2, 15 μL of MTT (Promega) is added to each well and the cells are incubated for an additional 5 hours. The optical density at 570 nm is quantified spectrophotometrically and IC50 values, the concentration of compound required for 50% inhibition, determined from a dose response curve.
(§2) Compounds of the invention are tested for their antiproliferative effect on Ba/F3 cells expressing either wild type or the mutant forms of BCR-Abl (G250E, E255V, T315I, F317L, M351T) that confers resistance or diminished sensitivity to STI571. The antiproliferative effect of these compounds on the mutant-BCR-Abl expressing cells and on the non transformed cells were tested at 10, 3.3, 1.1 and 0.37 μM as described above (in media lacking IL3). The IC50 values of the compounds lacking toxicity on the untransformed cells were determined from the dose response curves obtained as describe above.

[2] = biological target: T2, wild type Bcr-abl (Ba/F3 cells) (Homo sapiens, UniProt P00519); test: Proliferation of Ba/F3 cells expressing wild type Bcr-abl; type: cell-based
T2 construct: expressed in transfected cells; host or cells: Ba/F3 (murine pro-B cells); the other entry of the earlier key: BCR (P11274, Breakpoint cluster region protein)
Procedure: as §1, §2

[3] = biological target: T3, F317L Bcr-abl (Ba/F3 cells) (Homo sapiens, UniProt P00519, F317L); test: Proliferation of Ba/F3 cells expressing mutant Bcr-abl F317L; type: cell-based
T3 construct: expressed in transfected cells; host or cells: Ba/F3; the other entry of the earlier key: BCR (P11274, Breakpoint cluster region protein)
Procedure: as §1, §2

Lck = biological target: T4, Lck (Homo sapiens, UniProt P06239); test: Upstate KinaseProfiler radio-enzymatic filter binding assay; type: biochemical; conditions: at a concentration of 10 μM; read-out: percentage inhibition of Lck
T4 construct: purchased Upstate
Procedure: (§3) Compounds of the invention are assessed for their ability to inhibit individual members of a panel of kinases (a partial, non-limiting list of kinases includes: Abl, BMX, BTK, CHK2, c-RAF, CSK, c-SRC, Fes, FGFR3, Flt3, IKKα, IKKβ, JNK2α2, Lck, Met, MKK4, MKK6, MST2, NEK2, p70S6K, PDGFRβ, PKA, PKBα, PKD2, Rsk1, SAPK2α, SAPK2β, SAPK3, SGK, Tie2 and/or TrkB. The compounds are tested in duplicates at a final concentration of 10 μM following this generic protocol. Note that the kinase buffer composition and the substrates vary for the different kinases included in the “Upstate KinaseProfiler™” panel. Kinase buffer (2.5 μL, 10×—containing MnCl2 when required), active kinase (0.001-0.01 Units; 2.5 μL), specific or Poly(Glu4-Tyr) peptide (5-500 μM or 0.01 mg/ml) in kinase buffer and kinase buffer (50 μM; 5 μL) are mixed in an eppendorf on ice. A Mg/ATP mix (10 μL; 67.5 (or 33.75) mM MgCl2, 450 (or 225) μM ATP and 1 μCi/μl [γ-^32P]-ATP (3000 Ci/mmol)) is added and the reaction is incubated at about 30° C. for about 10 minutes. The reaction mixture is spotted (20 μL) onto a 2 cm×2 cm P81 (phosphocellulose, for positively charged peptide substrates) or Whatman No. 1 (for Poly (Glu4-Tyr) peptide substrate) paper square. The assay squares are washed 4 times, for 5 minutes each, with 0.75% phosphoric acid and washed once with acetone for 5 minutes. The assay squares are transferred to a scintillation vial, 5 ml scintillation cocktail are added and ^32P incorporation (cpm) to the peptide substrate is quantified with a Beckman scintillation counter. Percentage inhibition is calculated for each reaction.

Tie2 = biological target: T5, Tie2 (Homo sapiens, UniProt Q02763); test: as above; type: biochemical; conditions: at a concentration of 10 μM; read-out: percentage inhibition of Tie2
T5 construct: purchased Upstate
Procedure: as §3

MKK6 = biological target: T6, MKK6 (Homo sapiens, UniProt P52564); test: as above; type: biochemical; conditions: at a concentration of 10 μM; read-out: percentage inhibition of MKK6
T6 construct: purchased Upstate
T6 sequence (P52564 whole entry): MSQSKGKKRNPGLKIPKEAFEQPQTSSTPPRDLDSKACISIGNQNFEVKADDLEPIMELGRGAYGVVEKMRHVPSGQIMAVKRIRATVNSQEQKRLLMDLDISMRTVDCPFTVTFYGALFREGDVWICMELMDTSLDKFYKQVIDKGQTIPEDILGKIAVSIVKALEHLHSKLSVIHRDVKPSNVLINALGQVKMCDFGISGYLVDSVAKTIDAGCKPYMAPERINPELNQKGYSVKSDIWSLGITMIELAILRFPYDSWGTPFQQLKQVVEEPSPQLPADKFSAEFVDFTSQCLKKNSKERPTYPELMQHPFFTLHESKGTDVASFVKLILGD
Procedure: as §3

BTK = biological target: T7, BTK (Homo sapiens, UniProt Q06187); test: as above; type: biochemical; conditions: at a concentration of 10 μM; read-out: percentage inhibition of BTK
T7 construct: purchased Upstate
T7 sequence (Q06187 whole entry): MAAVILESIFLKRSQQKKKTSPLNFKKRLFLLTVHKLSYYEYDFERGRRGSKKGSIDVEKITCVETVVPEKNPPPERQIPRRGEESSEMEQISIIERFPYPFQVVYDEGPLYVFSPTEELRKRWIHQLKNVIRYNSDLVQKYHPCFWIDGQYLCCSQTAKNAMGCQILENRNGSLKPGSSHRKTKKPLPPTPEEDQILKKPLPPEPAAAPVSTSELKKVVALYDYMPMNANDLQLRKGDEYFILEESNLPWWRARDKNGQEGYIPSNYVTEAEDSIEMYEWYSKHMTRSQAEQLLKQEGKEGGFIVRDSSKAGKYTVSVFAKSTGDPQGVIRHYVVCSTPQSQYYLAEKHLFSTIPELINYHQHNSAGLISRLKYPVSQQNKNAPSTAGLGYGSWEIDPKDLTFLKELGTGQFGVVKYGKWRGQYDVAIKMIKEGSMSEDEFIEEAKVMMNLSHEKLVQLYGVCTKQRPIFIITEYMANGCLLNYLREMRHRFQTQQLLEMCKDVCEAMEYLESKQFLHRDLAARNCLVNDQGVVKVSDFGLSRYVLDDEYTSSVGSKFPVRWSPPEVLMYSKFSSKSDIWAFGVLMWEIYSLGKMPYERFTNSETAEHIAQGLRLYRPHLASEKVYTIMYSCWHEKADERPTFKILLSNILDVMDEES
Procedure: as §3

Rsk1 = biological target: T8, Rsk1 (Homo sapiens, UniProt Q15418); test: as above; type: biochemical; conditions: at a concentration of 10 μM; read-out: percentage inhibition of Rsk1
T8 construct: purchased Upstate
T8 sequence (Q15418 whole entry): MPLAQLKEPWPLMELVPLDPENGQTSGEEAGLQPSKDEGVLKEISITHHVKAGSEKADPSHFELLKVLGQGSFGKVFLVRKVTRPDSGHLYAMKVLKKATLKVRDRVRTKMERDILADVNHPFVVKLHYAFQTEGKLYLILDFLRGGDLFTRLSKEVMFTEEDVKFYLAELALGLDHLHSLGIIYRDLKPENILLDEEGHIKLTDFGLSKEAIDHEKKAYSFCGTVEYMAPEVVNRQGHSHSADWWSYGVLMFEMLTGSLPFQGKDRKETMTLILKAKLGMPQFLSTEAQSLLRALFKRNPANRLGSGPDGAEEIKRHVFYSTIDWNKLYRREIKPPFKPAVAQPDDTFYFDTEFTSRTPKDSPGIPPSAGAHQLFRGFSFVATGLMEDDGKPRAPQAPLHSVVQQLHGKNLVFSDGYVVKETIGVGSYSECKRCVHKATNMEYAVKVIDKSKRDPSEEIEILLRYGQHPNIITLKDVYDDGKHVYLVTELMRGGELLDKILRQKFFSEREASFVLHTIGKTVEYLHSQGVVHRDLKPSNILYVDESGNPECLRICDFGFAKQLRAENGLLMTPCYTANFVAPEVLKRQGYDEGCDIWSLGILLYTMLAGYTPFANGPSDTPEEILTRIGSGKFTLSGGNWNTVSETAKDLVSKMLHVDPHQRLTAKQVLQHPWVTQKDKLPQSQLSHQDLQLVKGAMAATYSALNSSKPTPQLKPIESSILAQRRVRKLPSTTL
Procedure: as §3

TrkB = biological target: T9, TrkB (Homo sapiens, UniProt Q16620); test: as above; type: biochemical; conditions: at a concentration of 10 μM; read-out: percentage inhibition of TrkB
T9 construct: purchased Upstate
Procedure: as §3

BMX = biological target: T10, BMX (Homo sapiens, UniProt P51813); test: as above; type: biochemical; conditions: at a concentration of 10 μM; read-out: percentage inhibition of BMX
T10 construct: purchased Upstate
T10 sequence (P51813 whole entry): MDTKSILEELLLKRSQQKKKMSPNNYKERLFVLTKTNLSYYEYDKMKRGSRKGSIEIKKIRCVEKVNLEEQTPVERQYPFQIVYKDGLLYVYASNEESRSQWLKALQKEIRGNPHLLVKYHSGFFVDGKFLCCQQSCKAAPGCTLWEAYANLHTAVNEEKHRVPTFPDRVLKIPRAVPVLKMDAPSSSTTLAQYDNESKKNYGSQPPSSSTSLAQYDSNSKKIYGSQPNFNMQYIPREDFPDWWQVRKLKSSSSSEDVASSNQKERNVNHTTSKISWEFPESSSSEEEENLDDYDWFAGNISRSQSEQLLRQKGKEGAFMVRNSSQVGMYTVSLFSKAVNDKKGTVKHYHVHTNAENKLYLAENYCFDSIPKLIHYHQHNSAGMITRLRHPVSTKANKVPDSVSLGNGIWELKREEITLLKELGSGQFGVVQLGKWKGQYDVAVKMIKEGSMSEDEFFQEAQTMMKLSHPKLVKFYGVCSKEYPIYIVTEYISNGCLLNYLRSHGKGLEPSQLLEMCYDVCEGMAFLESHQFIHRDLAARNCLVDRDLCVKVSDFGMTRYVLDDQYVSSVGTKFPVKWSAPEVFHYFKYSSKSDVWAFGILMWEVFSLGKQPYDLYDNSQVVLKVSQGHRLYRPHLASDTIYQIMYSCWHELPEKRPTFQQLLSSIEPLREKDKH
Procedure: as §3

c-SRC = biological target: T11, c-SRC (Homo sapiens, UniProt P12931); test: as above; type: biochemical; conditions: at a concentration of 10 μM; read-out: percentage inhibition of c-SRC
T11 construct: purchased Upstate
T11 sequence (P12931 whole entry): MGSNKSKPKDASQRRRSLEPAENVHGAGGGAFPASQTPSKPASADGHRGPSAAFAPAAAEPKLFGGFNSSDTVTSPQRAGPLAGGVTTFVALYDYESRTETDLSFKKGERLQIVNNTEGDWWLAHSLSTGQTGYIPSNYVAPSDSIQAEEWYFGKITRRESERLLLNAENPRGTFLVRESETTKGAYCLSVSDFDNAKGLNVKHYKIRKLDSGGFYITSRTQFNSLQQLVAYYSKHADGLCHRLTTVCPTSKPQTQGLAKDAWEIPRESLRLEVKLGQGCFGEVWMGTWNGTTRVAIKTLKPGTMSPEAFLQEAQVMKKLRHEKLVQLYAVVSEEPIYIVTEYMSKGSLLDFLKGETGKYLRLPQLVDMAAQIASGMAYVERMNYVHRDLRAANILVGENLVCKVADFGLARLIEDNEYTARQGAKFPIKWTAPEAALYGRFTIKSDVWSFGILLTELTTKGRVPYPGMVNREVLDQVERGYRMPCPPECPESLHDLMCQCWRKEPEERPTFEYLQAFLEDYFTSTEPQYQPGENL
Procedure: as §3

Fes = biological target: T12, Fes (Homo sapiens, UniProt P07332); test: as above; type: biochemical; conditions: at a concentration of 10 μM; read-out: percentage inhibition of Fes
T12 construct: purchased Upstate
T12 sequence (P07332 whole entry): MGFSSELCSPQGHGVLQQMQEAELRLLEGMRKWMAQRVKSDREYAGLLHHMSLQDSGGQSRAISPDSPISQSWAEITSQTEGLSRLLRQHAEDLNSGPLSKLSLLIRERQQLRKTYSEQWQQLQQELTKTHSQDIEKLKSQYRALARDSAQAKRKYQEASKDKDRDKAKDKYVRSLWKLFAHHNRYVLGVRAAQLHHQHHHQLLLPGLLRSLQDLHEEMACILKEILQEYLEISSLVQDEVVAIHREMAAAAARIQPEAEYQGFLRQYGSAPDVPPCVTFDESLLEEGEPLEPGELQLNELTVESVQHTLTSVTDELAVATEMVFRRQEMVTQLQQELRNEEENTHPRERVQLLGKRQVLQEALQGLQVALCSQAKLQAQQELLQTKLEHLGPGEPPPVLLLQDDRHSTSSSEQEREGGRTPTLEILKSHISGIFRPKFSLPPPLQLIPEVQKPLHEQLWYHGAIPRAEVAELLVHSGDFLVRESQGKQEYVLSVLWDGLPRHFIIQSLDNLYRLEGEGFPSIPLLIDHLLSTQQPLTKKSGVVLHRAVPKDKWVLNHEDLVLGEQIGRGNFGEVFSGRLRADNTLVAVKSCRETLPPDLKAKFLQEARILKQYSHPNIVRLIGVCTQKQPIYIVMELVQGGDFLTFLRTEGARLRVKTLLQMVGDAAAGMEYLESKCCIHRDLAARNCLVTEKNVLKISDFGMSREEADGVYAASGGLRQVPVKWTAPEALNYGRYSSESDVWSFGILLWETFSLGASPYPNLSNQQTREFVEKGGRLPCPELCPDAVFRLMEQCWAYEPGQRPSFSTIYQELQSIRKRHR
Procedure: as §3

p70S6K = biological target: T13, p70S6K (Homo sapiens, UniProt P23443); test: as above; type: biochemical; conditions: at a concentration of 10 μM; read-out: percentage inhibition of p70S6K
T13 construct: purchased Upstate
T13 sequence (P23443 whole entry): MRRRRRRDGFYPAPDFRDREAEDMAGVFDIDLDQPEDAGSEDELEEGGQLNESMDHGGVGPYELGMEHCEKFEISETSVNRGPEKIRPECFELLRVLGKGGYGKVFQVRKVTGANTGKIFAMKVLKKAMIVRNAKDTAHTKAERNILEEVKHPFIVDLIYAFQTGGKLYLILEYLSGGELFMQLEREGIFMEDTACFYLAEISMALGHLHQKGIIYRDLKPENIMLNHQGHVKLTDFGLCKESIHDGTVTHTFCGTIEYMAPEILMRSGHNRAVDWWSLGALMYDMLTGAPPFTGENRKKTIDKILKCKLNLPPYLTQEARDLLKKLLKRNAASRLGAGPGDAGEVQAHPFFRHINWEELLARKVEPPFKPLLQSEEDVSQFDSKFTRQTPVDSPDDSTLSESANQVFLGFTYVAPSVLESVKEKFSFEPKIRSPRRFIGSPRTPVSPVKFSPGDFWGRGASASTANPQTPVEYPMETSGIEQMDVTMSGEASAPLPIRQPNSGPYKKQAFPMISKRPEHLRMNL
Procedure: as §3

SAPK2α = biological target: T14, SAPK2α (Homo sapiens, UniProt Q16539); test: as above; type: biochemical; conditions: at a concentration of 10 μM; read-out: percentage inhibition of SAPK2α
T14 construct: purchased Upstate
T14 sequence (Q16539 whole entry): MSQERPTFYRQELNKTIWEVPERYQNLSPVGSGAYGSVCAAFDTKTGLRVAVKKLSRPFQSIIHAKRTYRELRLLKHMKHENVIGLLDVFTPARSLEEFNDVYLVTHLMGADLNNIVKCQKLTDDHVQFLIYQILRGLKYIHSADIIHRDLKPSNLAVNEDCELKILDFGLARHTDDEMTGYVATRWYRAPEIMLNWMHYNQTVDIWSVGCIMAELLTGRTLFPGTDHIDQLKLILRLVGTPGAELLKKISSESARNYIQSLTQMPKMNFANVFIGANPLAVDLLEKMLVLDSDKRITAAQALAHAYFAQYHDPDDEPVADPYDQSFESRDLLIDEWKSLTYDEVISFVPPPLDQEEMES
Procedure: as §3

[4] = biological target: T15, E255V Bcr-abl (Ba/F3 cells) (Homo sapiens, UniProt P00519, E255V); test: Proliferation of Ba/F3 cells expressing mutant Bcr-abl E255V; type: cell-based
T15 construct: expressed in transfected cells; host or cells: Ba/F3; the other entry of the earlier key: BCR (P11274, Breakpoint cluster region protein)
Procedure: as §1, §2

[5] = biological target: T16, M351T Bcr-abl (Ba/F3 cells) (Homo sapiens, UniProt P00519, M351T); test: Proliferation of Ba/F3 cells expressing mutant Bcr-abl M351T; type: cell-based
T16 construct: expressed in transfected cells; host or cells: Ba/F3; the other entry of the earlier key: BCR (P11274, Breakpoint cluster region protein)
Procedure: as §1, §2

[6] = biological target: T17, T315I Bcr-abl (Ba/F3 cells) (Homo sapiens, UniProt P00519, T315I); test: Proliferation of Ba/F3 cells expressing mutant Bcr-abl T315I; type: cell-based
T17 construct: expressed in transfected cells; host or cells: Ba/F3; the other entry of the earlier key: BCR (P11274, Breakpoint cluster region protein)
Procedure: as §1, §2

For Cc1cn(-c2cc(C(=O)Nc3ccc(C)c(Nc4nccn4-c4ncnc5[nH]ccc45)c3)cc(C(F)(F)F)c2)cn1 [Example 2, 3-(4-methyl-imidazol-1-yl)-N-{4-methyl-3-[1-(7H-pyrrolo[2,3-d]pyrimidin-4-yl)-1H-imidazol-2-ylamino]-phenyl}-5-trifluoromethyl-benzamide], the IC50 [1] was 56 nM, the IC50 [2] was under 0.5 nM and the IC50 [3] was under 0.5 nM. For the same molecule, the inhibition at 10 µM (Lck) was 99%, the inhibition at 10 µM (Tie2) was 99% and the inhibition at 10 µM (MKK6) was 99%. The inhibition at 10 µM (BTK) was 99%, the inhibition at 10 µM (Rsk1) was 88% and the inhibition at 10 µM (TrkB) was 100%. For the same molecule, the inhibition at 10 µM (BMX) was 99%, the inhibition at 10 µM (c-SRC) was 100% and the inhibition at 10 µM (Fes) was 71%. For the same molecule, the inhibition at 10 µM (p70S6K) was 86%, the inhibition at 10 µM (SAPK2α) was 97% and the IC50 [4] was 43 nM. For the same molecule, the IC50 [5] was under 0.5 nM and the IC50 [6] was 63 nM.
